From PubChem BioAssay AID540318 (Broad Institute, 2011)

test system: BJeLR fibroblasts viability, Alamar Blue fluorescence, 48 h; test: BJeLR cell growth inhibition – Ras selective lethality, dry powder, set 4, dose response (AID 540318)

Going from `Cc1onc(C(=O)N2CCN(C(c3ccc(F)cc3)c3ccc(F)cc3)CC2)c1[N+](=O)[O-]` to `Cc1onc(CC(=O)N2CCN(C(c3ccc(F)cc3)c3ccc(F)cc3)CC2)c1[N+](=O)[O-]`, the AC50 rises from 0.934 µM to 28 µM (30-fold).

Compared with `CCOc1ccccc1-n1c(C(C)N2CCN(C(=O)COc3ccc(Cl)cc3)CC2)nc2ccccc2c1=O` (configuration not stated), `Cc1onc(C(=O)N2CCN(C(c3ccccc3)c3ccc(Cl)cc3)CC2)c1[N+](=O)[O-]` (configuration not stated) is 2-fold lower in AC50: 1.43 µM for the first, 0.706 µM for the second.

First: Cc1onc(C(=O)N2CCN(C(c3ccc(Cl)cc3)c3ccc(Cl)cc3)CC2)c1[N+](=O)[O-]
Second: COc1ccc(C(c2ccc(OC)cc2)N2CCN(C(=O)c3noc(C)c3[N+](=O)[O-])CC2)cc1
The AC50 of the first is 12-fold lower: 0.364 µM for the first, 4.29 µM for the second.

Going from `O=C(c1ccc([N+](=O)[O-])o1)N1CCN(C(c2ccc(F)cc2)c2ccc(F)cc2)CC1` to `Cc1onc(C(=O)N2CCN(C(c3ccccc3)c3ccccc3)CC2)c1[N+](=O)[O-]`, the AC50 falls from 34.9 µM to 2.81 µM (12-fold).

`O=C(NCCNC(c1ccccc1)c1ccccc1)c1ccc([N+](=O)[O-])o1` and `O=C(c1cc([N+](=O)[O-])ccn1)N1CCN(C(c2ccccc2)c2ccccc2)CC1` are within 1.5-fold of each other in AC50: 25.9 µM for the first, 37.1 µM for the second.

Going from `Cc1onc(C(=O)N2CCCN(C(c3ccccc3)c3ccccc3)CC2)c1[N+](=O)[O-]` to `COC(=O)c1ccc([C@@H]2c3[nH]c4ccccc4c3C[C@@H](C(=O)OC)N2C(=O)CCl)cc1`, the AC50 falls from 3.45 µM to 0.79 µM (4.4-fold).
